Measured values: US20040242572A1 (Boehringer Ingelheim International GmbH, priority 2002, published 2004)

System: not given
Assay: not given
Details: not given

For `O=c1c2ccc(-c3ccc(Cl)cc3)cc2ncn1CCc1ccc(CN2CCC3(CCCCC3)CC2)cc1` [Example 1.25, 7-(4-chloro-phenyl)-3-{2-[4-(3-Aza-spiro[5.5]undec-3-ylmethyl)-phenyl]-ethyl}-3H-quinazolin-4-one], which melting point is on record?
Its melting point is 184 to 185 °C.

For `Cc1nc2cc(-c3ccc(Cl)cc3)ccc2c(=O)n1CCc1ccc(CN2CCCC2)cc1` [Example 1.11, 7-(4-chloro-phenyl)-2-methyl-3-[2-(4-pyrrolidin-1-ylmethyl-phenyl)-ethyl]-3H-quinazolin-4-one], which melting point is on record?
Its melting point is 160 to 163 °C.

With `O=c1c2ccc(-c3ccc(Cl)cc3)cc2ncn1CCc1ccc(CN2CCC(Oc3ccccn3)CC2)cc1` [Example 1.26, 7-(4-chloro-phenyl)-3-(2-{4-[4-(pyridin-2-yloxy)-piperidin-1-ylmethyl]-phenyl}-ethyl)-3H-quinazolin-4-one] as the molecule, how does the melting point read?
Its melting point is 154 to 158 °C.

With `COC[C@@H]1CCCN1Cc1ccc(CCn2cnc3cc(-c4ccc(Cl)cc4)ccc3c2=O)cc1` [Example 1.13, 7-(4-chloro-phenyl)-3-{2-[4-((S)-2-methoxymethyl-pyrrolidin-1-ylmethyl)-phenyl]-ethyl}-3H-quinazolin-4-one] as the molecule, how does the melting point read?
The melting point was 133 to 135 °C.

With `O=c1c2ccc(-c3ccc(F)cc3)cc2ncn1CCc1ccc(CN2CCCC2)cc1` [Example 1.7, 7-(4-fluoro-phenyl)-3-[2-(4-pyrrolidin-1-ylmethyl-phenyl)-ethyl]-3H-quinazolin-4-one] as the molecule, how does the melting point read?
Its melting point is 160 to 161 °C.

Which melting point does the source give for `O=c1c2ccc(-c3ccc(Cl)cc3)cc2ncn1CCc1ccc(CN2CCCC2)cc1` [Example 1.1, 7-(4-chloro-phenyl)-3-[2-(4-pyrrolidin-1-ylmethyl-phenyl)-ethyl]-3H-quinazolin-4-one] here?
Its melting point is 178 to 179 °C.

With `O=c1c2ccc(-c3ccc(Cl)cc3)cc2ncn1CCc1ccc(CN2CCOCC2)cc1` [Example 1.16, 7-(4-chloro-phenyl)-3-[2-(4-morpholin-4-ylmethyl-phenyl)-ethyl]-3H-quinazolin-4-one] as the molecule, how does the melting point read?
The melting point was 169 to 170 °C.

For `CN(C)Cc1ccc(CCn2cnc3cc(-c4ccc(Cl)cc4)ccc3c2=O)cc1` [Example 1.14, 7-(4-chloro-phenyl)-3-[2-(4-dimethylaminomethyl-phenyl)-ethyl]-3H-quinazolin-4-one], which melting point is on record?
Its melting point is 183 °C.

Which melting point does the source give for `O=c1c2ccc(-c3ccc(Cl)cc3)cc2ncn1CCc1ccc(CN2CC=C(c3ccccc3)CC2)cc1` [Example 1.24, 7-(4-chloro-phenyl)-3-{2-[4-(4-phenyl-3.6-dihydro-2H-piperidin-1-ylmethyl)-phenyl]-ethyl}-3H-quinazolin-4-one] here?
The melting point was 166 to 167 °C.

Which melting point does the source give for `O=c1c2ccc(-c3ccc(Cl)cc3)cc2ncn1CCc1ccc(CN2CCC(c3ccccc3)CC2)cc1` [Example 1.21, 7-(4-chloro-phenyl)-3-{2-[4-(4-phenyl-piperidin-1-ylmethyl)-phenyl]-ethyl}-3H-quinazolin-4-one] here?
The melting point was 178 to 179 °C.

Which melting point does the source give for `O=c1c2ccc(-c3ccc(C(F)(F)F)cc3)cc2ncn1CCc1ccc(CN2CCCC2)cc1` [Example 1.3, 3-[2-(4-pyrrolidin-1-ylmethyl-phenyl)-ethyl]-7-(4-trifluormethyl-phenyl)-3H-quinazolin-4-one] here?
The melting point was 179 to 181 °C.

With `O=c1c2ccc(-c3ccc(Cl)cc3)cc2ncn1CCc1ccc(CN2CCC(Nc3ccccn3)CC2)cc1` [Example 1.27, 7-(4-chloro-phenyl)-3-(2-{4-[4-(pyridin-2-ylamino)-piperidin-1-ylmethyl]-phenyl}-ethyl)-3H-quinazolin-4-one] as the molecule, how does the melting point read?
Its melting point is 164 to 166 °C.

Which melting point does the source give for `O=c1c2ccc(-c3ccc(Cl)c(Cl)c3)cc2ncn1CCc1ccc(CN2CCCC2)cc1` [Example 1.5, 7-(3,4-dichloro-phenyl)-3-[2-(4-pyrrolidin-1-ylmethyl-phenyl)-ethyl]-3H-quinazolin-4-one] here?
Its melting point is 148 to 149 °C.

For `O=c1c2ccc(-c3ccc(Cl)cc3)cc2nnn1CCc1ccc(CN2CCC3(CCCCC3)CC2)cc1` [Example 1.30, 7-(4-chloro-phenyl)-3-{2-[4-(3-aza-spiro[5.5]undec-3-ylmethyl)-phenyl]-ethyl}-3H-benzo[d][1,2,3]triazin-4-one], which melting point is on record?
The melting point was 165 to 166 °C.

Which melting point does the source give for `O=c1c2ccc(-c3ccc(Cl)cc3)cc2nnn1Cc1ccc(CN2CCCC2)cc1` [Example 1.19, 7-(4-chloro-phenyl)-3-(4-pyrrolidin-1-ylmethyl-benzyl)-3H-benzo[d][1,2,3]triazin-4-one] here?
The melting point was 147 to 148 °C.

Which melting point does the source give for `O=c1c2ccc(-c3ccc(Cl)cc3)cc2nnn1CCc1ccc(CN2CCCC2)cc1` [Example 1.18, 7-(4-chloro-phenyl)-3-[2-(4-pyrrolidin-1-ylmethyl-phenyl)-ethyl]-3H-benzo[d][1,2,3]triazin-4-one] here?
The melting point was 151 to 152 °C.

For `Cc1ccc(-c2ccc3c(=O)n(CCc4ccc(CN5CCCC5)cc4)cnc3c2)cc1` [Example 1.2, 3-[2-(4-Pyrrolidin-1-ylmethyl-phenyl)-ethyl]-7-p-tolyl-3H-quinazolin-4-one], which melting point is on record?
The melting point was 157 to 158 °C.

With `O=c1c2ccc(-c3ccc(Cl)cc3)cc2nnn1CCc1ccc(CN2CCC(c3ccccc3)CC2)cc1` [Example 1.28, 7-(4-chloro-phenyl)-3-{2-[4-(4-phenyl-piperidin-1-ylmethyl)-phenyl]-ethyl}-3H-benzo[d][1,2,3]triazin-4-one] as the molecule, how does the melting point read?
The melting point was 183 to 184 °C.

For `CN1CCN(c2ccc(CCNC(=O)c3ccc(-c4ccc(Cl)cc4)cc3)cn2)CC1` [Example 2.50, 4′-chloro-biphenyl-4-carboxylic acid-{2-[6-(4-methyl-piperazin-1-yl)-pyridin-3-yl]-ethyl}-amide], which melting point is on record?
Its melting point is 211 to 213 °C.

Which melting point does the source give for `O=c1c2ccc(-c3ccc(Cl)cc3)cc2ncn1CCc1ccc(CN2CCN(c3ccccc3)CC2)cc1` [Example 1.22, 7-(4-chloro-phenyl)-3-{2-[4-(4-phenyl-piperazin-1-ylmethyl)-phenyl]-ethyl}-3H-quinazolin-4-one] here?
Its melting point is 199 to 200 °C.

Which melting point does the source give for `CCc1ccc(-c2ccc3c(=O)n(CCc4ccc(CN5CCCC5)cc4)cnc3c2)cc1` [Example 1.8, 7-(4-Ethyl-phenyl)-3-[2-(4-pyrrolidin-1-ylmethyl-phenyl)-ethyl]-3H-quinazolin-4-one] here?
Its melting point is 165 to 166 °C.

For `O=c1c2ccc(-c3ccc(Cl)cc3)cc2ncn1CCc1ccc(CN2CCCCC2)cc1` [Example 1.15, 7-(4-chloro-phenyl)-3-[2-(4-piperidin-1-ylmethyl-phenyl)-ethyl]-3H-quinazolin-4-one], which melting point is on record?
Its melting point is 169 to 170 °C.

With `O=c1c2ccc(-c3ccc(Cl)cc3)cc2ncn1CCc1ccc(CN2CCC(O)(c3ccccc3)CC2)cc1` as the molecule, how does the melting point read?
Its melting point is 204 to 205 °C.

For `CN1CCN(C(=O)c2ccc(CCNC(=O)c3ccc(-c4ccc(Cl)cc4)cc3)cc2)CC1` [Example 2.51, 4′-chloro-biphenyl-4-carboxylic acid-{2-[4-(4-methyl-piperazine-1-carbonyl)-phenyl]-ethyl}-amide], which melting point is on record?
Its melting point is 217 to 218 °C.

Which melting point does the source give for `O=c1[nH]c2cc(-c3ccc(Cl)cc3)ccc2c(=O)n1CCc1ccc(CN2CCCC2)cc1` [Example 1.12, 7-(4-chloro-phenyl)-3-[2-(4-pyrrolidin-1-ylmethyl-phenyl)-ethyl]-1H-quinazolin-2,4-dione] here?
Its melting point is 274 to 276 °C.

With `O=c1c2ccc(-c3ccc(Cl)cc3)cc2nnn1CCc1ccc(CN2CCC(O)(c3ccccc3)CC2)cc1` as the molecule, how does the melting point read?
The melting point was 265 to 266 °C.

Which melting point does the source give for `O=c1c2ccc(-c3ccc(Cl)cc3)cc2ccn1CCc1ccc(CN2CCCC2)cc1` [Example 1.31, 6-(4-chloro-phenyl)-2-[2-(4-pyrrolidin-1-ylmethyl-phenyl)-ethyl]-2H-isoquinolin-1-one] here?
Its melting point is 136 to 137 °C.

With `CN1CCN(c2ccc(CCn3cnc4cc(-c5ccc(Cl)cc5)ccc4c3=O)cn2)CC1` [Example 1.17, 7-(4-chloro-phenyl)-3-{2-[6-(4-methyl-piperazin-1-yl)-pyridin-3-yl]-ethyl}-3H-quinazolin-4-one] as the molecule, how does the melting point read?
The melting point was 263 to 264 °C.

Which melting point does the source give for `COc1ccc(-c2ccc3c(=O)n(CCc4ccc(CN5CCCC5)cc4)cnc3c2)cc1` [Example 1.4, 7-(4-Methoxy-phenyl)-3-[2-(4-pyrrolidin-1-ylmethyl-phenyl)-ethyl]-3H-quinazolin-4-one] here?
The melting point was 143 to 144 °C.

Molecular target: T1, hMCH-1R (Homo sapiens, UniProt Q99705)
T1 construct: expressed in transfected cells; host or cells: CHO/Galpha16 cells, stably transfected; membrane preparation
T1 sequence (Q99705 whole entry): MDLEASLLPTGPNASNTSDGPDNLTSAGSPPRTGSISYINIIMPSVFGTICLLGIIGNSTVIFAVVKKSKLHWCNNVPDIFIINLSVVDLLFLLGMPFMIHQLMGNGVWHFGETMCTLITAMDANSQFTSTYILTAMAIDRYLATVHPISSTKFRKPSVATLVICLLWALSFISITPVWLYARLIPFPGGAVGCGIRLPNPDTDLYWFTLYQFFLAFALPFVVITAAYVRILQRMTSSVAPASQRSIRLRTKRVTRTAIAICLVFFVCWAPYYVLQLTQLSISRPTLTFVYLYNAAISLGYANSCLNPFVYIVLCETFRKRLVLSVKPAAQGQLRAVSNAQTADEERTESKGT
Assay: MCH-1 receptor binding test (125I-MCH binding to membranes of hMCH-1R transfected CHO/Galpha16 cells)
Details: 100 pM 125I-MCH, membranes of CHO/Galpha16 cells with hMCH-1R
Experimental: Membranes from CHO/Galpha16 cells stably transfected with human hMCH-1R are resuspended using a syringe (needle 0.6×25 mm) and diluted in test buffer (50 mM HEPES, 10 mM MgCl2, 2 mM EGTA, pH 7.00; 0.1% bovine serum albumin (protease-free), 0.021% bacitracin, 1 μg/ml aprotinin, 1 μg/ml leupeptin and 1 μM phosphoramidone) to a concentration of 5 to 15 μg/ml. […] After the incubation the reaction is filtered using a cell harvester through 0.5% PEI treated glass fibre filters (GF/B, Unifilter Packard). The membrane-bound radioactivity retained on the filter is then determined after the addition of scintillator substance (Packard Microscint 20) in a measuring device (TopCount of Packard).
The non-specific binding is defined as bound radioactivity in the presence of 1 micromolar MCH during the incubation period.
The analysis of the concentration binding curve is carried out on the assumption of one receptor binding site.

For `CCN(CC)Cc1ccc(CCNC(=O)c2ccc(-c3ccc(OC)cc3)cc2)cc1` [Example 2.4, 4′-methoxy-biphenyl-4-carboxylic acid-[2-(4-diethylaminomethyl-phenyl)-ethyl]-amide], which IC50 is on record?
The IC50 was 3.5 nM.

Which IC50 does the source give for `CN(C)Cc1ccc(CCn2cnc3cc(-c4ccc(Cl)cc4)ccc3c2=O)cc1` [Example 1.14, 7-(4-chloro-phenyl)-3-[2-(4-dimethylaminomethyl-phenyl)-ethyl]-3H-quinazolin-4-one] here?
The IC50 was 2.1 nM.

With `Cc1ccc(C2CCN(C(=O)NCCc3ccc(CN4CCCC4)cc3)CC2)cc1` [Example 2.12, 4-methylphenyl-piperidine-1-carboxylic acid-[2-(4-pyrrolidin-1-ylmethyl-phenyl)-ethyl]-amide] as the molecule, how does the IC50 read?
Its IC50 is 30.5 nM.
